Target: T1, DβH (Homo sapiens, UniProt P09172)
T1 construct: 125 μL of plasma (or saline for blank reaction or standard curve); tissue Instituto Português do Sangue Transplantação, Centro Sangue Transplantação, Porto, Portugal; host or cells: human plasma from healthy donors
T1 sequence (P09172 40-617 limits assumed): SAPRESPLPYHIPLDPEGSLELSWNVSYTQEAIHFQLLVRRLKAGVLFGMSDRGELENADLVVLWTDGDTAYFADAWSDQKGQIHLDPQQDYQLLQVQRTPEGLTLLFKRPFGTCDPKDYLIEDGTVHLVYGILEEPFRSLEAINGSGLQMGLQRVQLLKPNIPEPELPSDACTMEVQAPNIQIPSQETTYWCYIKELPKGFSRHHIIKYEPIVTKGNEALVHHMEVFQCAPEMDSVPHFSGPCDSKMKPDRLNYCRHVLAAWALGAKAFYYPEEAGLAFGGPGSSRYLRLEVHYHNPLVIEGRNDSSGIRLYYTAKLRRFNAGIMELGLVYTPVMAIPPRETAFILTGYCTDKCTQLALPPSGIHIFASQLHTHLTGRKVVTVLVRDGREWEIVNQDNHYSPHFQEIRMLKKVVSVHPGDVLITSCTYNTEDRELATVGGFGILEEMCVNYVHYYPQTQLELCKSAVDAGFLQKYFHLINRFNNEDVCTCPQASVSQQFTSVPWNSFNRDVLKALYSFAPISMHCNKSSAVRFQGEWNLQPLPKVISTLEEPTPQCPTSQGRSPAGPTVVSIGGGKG
Assay: Dopamine-β-hydroxylase inhibition assay in human plasma
Assay type: biochemical
Settings: for remaining activity at 0.01 µM: DβH activity in human plasma at 0.01 μM inhibitor; for remaining activity at 0.1 µM: DβH activity in human plasma at 0.1 μM inhibitor; for IC50: human plasma, curve fitting of 6 concentrations (100 nM to 0.3 nM)
Description: The ability of a compound to inhibit DβH activity may be assessed in human plasma using the following assay.
Dopamine beta hydroxylase activity in human plasma was measured by the method of Nagatsu and Udenfriend (Nagatsu, T. and Udenfriend, S. “Photometric assay of dopamine-p-hydroxylase activity in human blood.” Clin. Chem. 18(9) 980-983, 1972) with minor modifications. Catalase, N-ethylmaleimide, tyramine, disodium fumarate, pargyline, sodium acetate, ascorbic acid, copper sulfate and octopamine were obtained from Sigma Chemical Co., St. Louis, Mo. 63178. Human plasma samples were obtained from healthy donors (Instituto Português do Sangue Transplantação, Centro Sangue Transplantação, Porto, Portugal). From date of collection, plasma was stored at −80° C. until use. Test compounds were initially prepared in dimethyl sulfoxide at a concentration of 10 mM and diluted in dimethyl sulfoxide to the required concentrations. Test compounds were further diluted in ultrapure water to a concentration 20-fold to that of the final concentration to be tested. Final concentrations of test compounds were 10 and 100 nM. The various reagents used to make up the incubation buffer were premixed and consisted of the following components: sodium acetate buffer (1 M, pH 5.0, 18 mL), sodium fumarate (0.2 M, 4.5 mL), ascorbic acid (0.2 M, 4.5 ml, freshly prepared), pargyline (20 mM, freshly prepared, 4.5 mL), N-ethylmaleimide (0.2 M, 4.5 mL), catalase (10 000 U/mL, 9 mL), copper sulfate (20 μM, 4.5 mL) and 4.5 ultrapure water. The standard incubation mixture (total volume, 950 μL) contained: 50 μL of compound or vehicle (dimethyl sulfoxide 2%); 700 μL of incubation buffer; 125 μL of plasma (or saline for blank reaction or standard curve); 75 μL of saline. The reaction mixture was placed in water bath, shaking at 37° C. and pre-incubated for 10 minutes. Tyramine (0.5 M) was added and incubation proceeded for 45 minutes. The reaction contents were exposed to air. A sample of enzyme preparation (with 125 μL of plasma) that had been added perchloric acid 2 M at the end of the pre-incubation period was used as blank. A blank for each of the tested compounds was used. For octopamine standard curve, perchloric acid 2 M was replaced by increasing concentrations of octopamine prepared in perchloric acid 2 M (0.5, 1, 2.5, 5, 7.5, 10, 15, 20 μg/mL, final concentration). The incubation was stopped by adding 200 μL of 2 M molar perchloric acid, and the mixture was centrifuged at 9000 g for 5 min. The supernatant fluid (800 μL) was transferred to a column (SPE cartridge ISOLUTE SCX-3, 100 mg) and centrifuged at 150 g for 2 min. The column was washed two more times with 0.5 ml of ultrapure water by centrifuging at 150 g for 2 min. The adsorbed octopamine was eluted twice with 0.3 mL of 4 M ammonium hydroxide by centrifuging at 150 g for 2 min. Octopamine in the eluate was then converted to p-hydroxybenzaldehyde by adding 200 μL of sodium periodate (2%) and incubating for 6 min. Excess periodate was than reduced by adding 200 μL of sodium metabisulfite (10%). Absorbance was measured at […] in a 96-well plate by use of a SpectraMAX plus 384 (Molecular Devices) with software SOFTmax® PRO Software 5.3 spectrophotometer. Absorbance was linear with octopamine concentration from 0.5 to 20 μg/mL. Dopamine beta hydroxylase activity is determined as nmol of octopamine formed/mL of plasma/hour and effect of compounds is presented as % control. Results are reported in the table below as activity in % of control at the inhibitor concentration tested.
IC50 values of selected compounds were calculated based on curve fitting of results of 6 different compound concentrations (100 nM to 0.3 nM). IC50 data are reported in nM concentration.

| SMILES | remaining activity at 0.01 µM | remaining activity at 0.1 µM | IC50 |
| --- | --- | --- | --- |
| Fc1ccc(Cl)cc1[C@]12C[C@H]1c1c(CCCNC3CCOCC3)[nH]c(=S)n1C2 [Example 17, (5aS,6aR)-5a-(5-chloro-2-fluorophenyl)-1-(3-((tetrahydro-2H-pyran-4-yl)amino)propyl)-5,5a,6,6a-tetrahydrocyclopropa[3,4]pyrrolo[1,2-c]imidazole-3(2H)-thione] | 41.8% | 3.9% | 9.9 nM |
| Fc1ccc(Cl)cc1[C@]12C[C@H]1c1c(CCCN3CCCC3)[nH]c(=S)n1C2 [Example 20, (5aS,6aR)-5a-(5-chloro-2-fluorophenyl)-1-(3-(pyrrolidin-1-yl)propyl)-5,5a,6,6a-tetrahydrocyclopropa[3,4]pyrrolo[1,2-c]imidazole-3(2H)-thione] | 53.4% | 9.1% | 9.8 nM |
| Fc1ccc(Cl)cc1[C@]12C[C@H]1c1c(CCCN[C@H]3CCCOC3)[nH]c(=S)n1C2 [Example 21, (5aS,6aR)-5a-(5-chloro-2-fluorophenyl)-1-(3-(((S)-tetrahydro-2H-pyran-3-yl)amino)propyl)-5,5a,6,6a-tetrahydrocyclopropa[3,4]pyrrolo[1,2-c]imidazole-3(2H)-thione] | 45.3% | 8.5% |  |
| Fc1ccc(Cl)c(F)c1[C@]12C[C@H]1c1c(CCCN[C@H]3CCCOC3)[nH]c(=S)n1C2 [Example 22, (5aS,6aR)-5a-(3-chloro-2,6-difluorophenyl)-1-(3-(((S)-tetrahydro-2H-pyran-3-yl)amino)propyl)-5,5a,6,6a-tetrahydrocyclopropa[3,4]pyrrolo[1,2-c]imidazole-3(2H)-thione] | 23.5% | 3.5% | 4 nM |

More lines, now with the values ahead:

| remaining activity at 0.01 µM | remaining activity at 0.1 µM | IC50 | SMILES |
| --- | --- | --- | --- |
| 20.1% | 1% | 4 nM | Fc1ccc(Cl)c(F)c1[C@]12C[C@H]1c1c(CCCNC3CCOCC3)[nH]c(=S)n1C2 [Example 18, (5aS,6aR)-5a-(3-chloro-2,6-difluorophenyl)-1-(3-((tetrahydro-2H-pyran-4-yl)amino)propyl)-5,5a,6,6a-tetrahydrocyclopropa[3,4]pyrrolo[1,2-c]imidazole-3(2H)-thione] |
| 17% | 1% | 3 nM | Fc1ccc(Cl)c(F)c1[C@]12C[C@H]1c1c(CCCN3CCCC3)[nH]c(=S)n1C2 [Example 19, (5aS,6aR)-5a-(3-chloro-2,6-difluorophenyl)-1-(3-(pyrrolidin-1-yl)propyl)-5,5a,6,6a-tetrahydrocyclopropa[3,4]pyrrolo[1,2-c]imidazole-3(2H)-thione] |

— patent US20220267331A1, “DOPAMINE-B-HYDROXYLASE INHIBITORS” (BIAL - PORTELA & CA, S.A., priority 2019, published 2022)
